pEC50: −log10 of the molar value.
What follows are molecules tested on IFV A/PR/8/34 (assay: cytopathic effect (CPE) antiviral test in MDCK cells, IFV A/PR/8/34). Details: unidentified influenza virus, PR/8, MDCK, 120 h, read-out: EC50(IFV A/PR/8/34).
Assay type: cell-based, influenza virus

**Q.** How did the pEC50 turn out when `[2H]C([2H])([2H])C(C(=O)Nc1ccc2oc(-c3ccnc(C(=O)N4CCC(C(c5ccccc5)n5nnc(C)n5)CC4)c3)cc2c1)C([2H])([2H])[2H]` (racemic) [Compound 137, 3,3,3-trideuterio-N-[2-[2-[4-[(R/S)-(5-methyltetrazol-2-yl)-phenyl-methyl]piperidine-1-carbonyl]-4-pyridyl]benzofuran-5-yl]-2-(trideuteriomethyl)propanamide] was run?
**A.** The pEC50 was 7.96.

**Q.** `Cc1c(-c2ccc3oc(-c4ccnc(C(=O)N5CCN(C(c6ccccc6)c6nnn(C(F)F)n6)CC5)c4)nc3c2)cnn1C` (racemic) [Compound 154, (R/S)-(4-((2-(difluoromethyl)-2H-tetrazol-5-yl)(phenyl)methyl)piperazin-1-yl)(4-(5-(1,5-dimethyl-1H-pyrazol-4-yl)benzo[d]oxazol-2-yl)pyridin-2-yl)methanone] was tested. Which pEC50 did it give?
**A.** The pEC50 was 8.30.

**Q.** With `[2H]C([2H])([2H])c1nnn(C(c2ccccc2)C2CCN(C(=O)c3cc(-c4nc5cc(NC(=O)[C@@H]6C[C@@H]6F)ccc5o4)ccn3)CC2)n1` (mixture of isomers) [Compound 201, (1S,2S)-2-fluoro-N-(2-(2-(4-((R/S)-(5-(methyl-d3)-2H-tetrazol-2-yl)(phenyl)methyl)piperidine-1-carbonyl)pyridin-4-yl)benzo[d]oxazol-5-yl)cyclopropane-1-carboxamide] as the molecule, how does the pEC50 read?
**A.** The pEC50 was 8.44.

**Q.** With `COCc1nnn(C(c2ccccc2)C2CCN(C(=O)c3cc(-c4nc5cc(NC(=O)[C@@H]6C[C@@H]6F)ccc5o4)ccn3)CC2)n1` (mixture of isomers) [Compound 200, (1S,2S)-2-fluoro-N-(2-(2-(4-((R/S)-(5-(methoxymethyl)-2H-tetrazol-2-yl)(phenyl)methyl)piperidine-1-carbonyl)pyridin-4-yl)benzo[d]oxazol-5-yl)cyclopropane-1-carboxamide] as the molecule, how does the pEC50 read?
**A.** The pEC50 was 8.68.

**Q.** With `Cn1nccc1-c1ccc2oc(-c3ccnc(C(=O)N4CCN(C(c5ccccc5)c5nnn(C(F)F)n5)CC4)c3)nc2c1` (racemic) [Compound 152, (R/S)-(4-((2-(difluoromethyl)-2H-tetrazol-5-yl)(phenyl)methyl)piperazin-1-yl)(4-(5-(1-methyl-1H-pyrazol-5-yl)benzo[d]oxazol-2-yl)pyridin-2-yl)methanone] as the molecule, how does the pEC50 read?
**A.** The pEC50 was 8.30.

**Q.** With `O=C(Nc1ccc2oc(-c3ccnc(C(=O)N4CCC(C(c5ccccc5)n5nnc(C(F)F)n5)CC4)c3)nc2c1)[C@@H]1C[C@@H]1F` (mixture of isomers) [Compound 138, (1S,2S)—N-(2-(2-(4-((R/S)-(5-(difluoromethyl)-2H-tetrazol-2-yl)(phenyl)methyl)piperidine-1-carbonyl)pyridin-4-yl)benzo[d]oxazol-5-yl)-2-fluorocyclopropanecarboxamide] as the molecule, how does the pEC50 read?
**A.** The pEC50 was 8.40.

**Q.** With `NCc1nnn(C(c2ccccc2)C2CCN(C(=O)c3cc(-c4nc5cc(NC(=O)[C@@H]6C[C@@H]6F)ccc5o4)ccn3)CC2)n1` (mixture of isomers) [Compound 210, (1S,2S)—N-(2-(2-(4-((R/S)-(5-(aminomethyl)-2H-tetrazol-2-yl)(phenyl)methyl)piperidine-1-carbonyl)pyridin-4-yl)benzo[d]oxazol-5-yl)-2-fluorocyclopropane-1-carboxamide] as the molecule, how does the pEC50 read?
**A.** The pEC50 was 9.10.

**Q.** How did the pEC50 turn out when `Cn1cncc1-c1ccc2oc(-c3ccnc(C(=O)N4CCN(C(c5ccccc5)c5nnn(C(F)F)n5)CC4)c3)nc2c1` (racemic) [Compound 126, (R/S)-(4-((2-(difluoromethyl)-2H-tetrazol-5-yl)(phenyl)methyl)piperazin-1-yl)(4-(5-(1-methyl-1H-imidazol-5-yl)benzo[d]oxazol-2-yl)pyridin-2-yl)methanone] was run?
**A.** Its pEC50 is 9.00.

**Q.** `[2H]c1c([2H])c([2H])c([C@@H](C2CCN(C(=O)c3cc(-c4nc5cc(NC(=O)[C@@H]6C[C@@H]6F)ccc5o4)ccn3)CC2)n2nnc(C)n2)c([2H])c1[2H]` [Compound 205, (1S,2S)-2-fluoro-N-[2-[2-[4-[(R)-(5-methyltetrazol-2-yl)-(2,3,4,5,6-pentadeuteriophenyl)methyl]piperidine-1-carbonyl]-4-pyridyl]-1,3-benzoxazol-5-yl]cyclopropanecarboxamide] was tested. Which pEC50 did it give?
**A.** Its pEC50 is 8.26.

**Q.** How did the pEC50 turn out when `Cn1cc(-c2ccc3oc(-c4ccnc(C(=O)N5CCN(C(c6ccccc6)c6nnn(C(F)F)n6)CC5)c4)nc3c2)nn1` (racemic) [Compound 130, (R/S)-(4-((2-(difluoromethyl)-2H-tetrazol-5-yl)(phenyl)methyl)piperazin-1-yl)(4-(5-(1-methyl-1H-1,2,3-triazol-4-yl)benzo[d]oxazol-2-yl)pyridin-2-yl)methanone] was run?
**A.** The pEC50 was 7.54.

**Q.** With `O=C(c1cc(-c2nc3ccc(NC(=O)C4(F)CC4)cc3o2)ccn1)N1CCN(C(c2ccccc2)c2nnn(C(F)F)n2)CC1` (racemic) [Compound 125, (R/S)—N-(2-(2-(4-((2-(difluoromethyl)-2H-tetrazol-5-yl)(phenyl)methyl)piperazine-1-carbonyl)pyridin-4-yl)benzo[d]oxazol-6-yl)-1-fluorocyclopropane-1-carboxamide] as the molecule, how does the pEC50 read?
**A.** Its pEC50 is 7.92.

**Q.** `[2H]C([2H])([2H])C(C(=O)Nc1ccc2oc(-c3ccnc(C(=O)N4CCC(C(c5ccccc5)n5nnc(C(F)F)n5)CC4)c3)nc2c1)C([2H])([2H])[2H]` (racemic) [Compound 163, 3,3,3-tideuterio-N-[2-[2-[4-[(R/S)-[5-(difluoromethyl)tetrazol-2-yl]-phenyl-methyl]piperidine-1-carbonyl]-4-pyridyl]-1,3-benzoxazol-5-yl]-2-(trideuteriomethyl)propanamide] was tested. Which pEC50 did it give?
**A.** The pEC50 was 8.10.

**Q.** How did the pEC50 turn out when `Cc1n[nH]cc1-c1ccc2oc(-c3ccnc(C(=O)N4CCN(C(c5ccccc5)c5nnn(C(F)F)n5)CC4)c3)nc2c1` (racemic) [Compound 155, (R/S)-(4-((2-(difluoromethyl)-2H-tetrazol-5-yl)(phenyl)methyl)piperazin-1-yl)(4-(5-(3-methyl-1H-pyrazol-4-yl)benzo[d]oxazol-2-yl)pyridin-2-yl)methanone] was run?
**A.** Its pEC50 is 9.00.

**Q.** With `Cn1cc(-c2ccc3oc(-c4ccnc(C(=O)N5CCN(C(c6ccccc6)c6nnn(C(F)F)n6)CC5)c4)cc3c2)cn1` (racemic) [Compound 165, (R/S)-(4-((2-(difluoromethyl)-2H-tetrazol-5-yl)(phenyl)methyl)piperazin-1-yl)(4-(5-(1-methyl-1H-pyrazol-4-yl)benzofuran-2-yl)pyridin-2-yl)methanone] as the molecule, how does the pEC50 read?
**A.** The pEC50 was 8.00.

**Q.** `O=C(Nc1ccc2oc(-c3ccnc(C(=O)N4CCN(C(c5ccccc5)c5nnn(CCO)n5)CC4)c3)nc2c1)[C@@H]1C[C@@H]1F` (mixture of isomers) [Compound 212, (1S,2S)-2-fluoro-N-(2-(2-(4-((R/S)-(2-(2-hydroxyethyl)-2H-tetrazol-5-yl)(phenyl)methyl)piperazine-1-carbonyl)pyridin-4-yl)benzo[d]oxazol-5-yl)cyclopropane-1-carboxamide] was tested. Which pEC50 did it give?
**A.** Its pEC50 is 8.66.

**Q.** `Cc1nnn(C(c2ccc(F)cc2)C2CCN(C(=O)c3cc(-c4nc5cc(NC(=O)[C@@H]6C[C@@H]6F)ccc5o4)ccn3)CC2)n1` (single isomer, unassigned) [Compound 202] was tested. Which pEC50 did it give?
**A.** The pEC50 was 8.59.

**Q.** With `O=C(c1cc(-c2nc3cc(-c4cn(C(F)F)cn4)ccc3o2)ccn1)N1CCN(C(c2ccccc2)c2nnn(C(F)F)n2)CC1` (racemic) [Compound 170, (R/S)-(4-(5-(1-(difluoromethyl)-1H-imidazol-4-yl)benzo[d]oxazol-2-yl)pyridin-2-yl)(4-((2-(difluoromethyl)-2H-tetrazol-5-yl)(phenyl)methyl)piperazin-1-yl)methanone] as the molecule, how does the pEC50 read?
**A.** The pEC50 was 8.15.

— US20230079045A1 (priority 2019, published 2023)
